Laboratory results published in the NIST ThermoML archive (doi:10.1016/j.jct.2004.11.020).
Numbers after ± are expanded uncertainties.

Test: xn = mol fraction of the nth substance listed
Settings: 308.15 K, 101 kPa, Liquid; for speed of sound: Pulse-echo method

## CCC(O)CO (configuration not stated) [1,2-butanediol] + O=C1CCCN1
x2 = 0.027
  speed of sound: 1426.7 ± 2.2 m/s
  viscosity: 28.33 ± 0.79 mPa·s
x2 = 0.0512
  speed of sound: 1430.5 ± 2.2 m/s
  viscosity: 27.12 ± 0.75 mPa·s
x2 = 0.0797
  speed of sound: 1435.2 ± 2.2 m/s
  viscosity: 25.57 ± 0.7 mPa·s
x2 = 0.0977
  speed of sound: 1438.2 ± 2.2 m/s
  viscosity: 24.38 ± 0.66 mPa·s
x2 = 0.1464
  speed of sound: 1446.3 ± 2.1 m/s
  viscosity: 22.32 ± 0.6 mPa·s
x2 = 0.1937
  speed of sound: 1454.3 ± 2.1 m/s
  viscosity: 20.82 ± 0.56 mPa·s
x2 = 0.3017
  speed of sound: 1472.5 ± 2 m/s
  viscosity: 17.81 ± 0.47 mPa·s
x2 = 0.4061
  speed of sound: 1490.3 ± 1.9 m/s
  viscosity: 15.69 ± 0.41 mPa·s
x2 = 0.5017
  speed of sound: 1507.5 ± 1.9 m/s
  viscosity: 14.09 ± 0.37 mPa·s
x2 = 0.5983
  speed of sound: 1524.7 ± 1.8 m/s
  viscosity: 12.68 ± 0.33 mPa·s
x2 = 0.7038
  speed of sound: 1543.6 ± 1.7 m/s
  viscosity: 11.52 ± 0.3 mPa·s
x2 = 0.798
  speed of sound: 1561 ± 1.6 m/s
  viscosity: 10.78 ± 0.28 mPa·s
x2 = 0.8484
  speed of sound: 1570.6 ± 1.6 m/s
  viscosity: 10.26 ± 0.27 mPa·s
x2 = 0.9038
  speed of sound: 1580.6 ± 1.6 m/s
  viscosity: 9.435 ± 0.25 mPa·s
x2 = 0.9319
  speed of sound: 1586.6 ± 1.5 m/s
  viscosity: 9.291 ± 0.24 mPa·s
x2 = 0.9512
  speed of sound: 1590.1 ± 1.5 m/s
  viscosity: 9.015 ± 0.24 mPa·s
x2 = 0.9738
  speed of sound: 1594.7 ± 1.5 m/s
  viscosity: 8.969 ± 0.24 mPa·s
x2 = 0.0473
  excess molar volume: 1.3e-08 ± 9e-09 m3/mol
x2 = 0.0621
  excess molar volume: 1.8e-08 ± 9e-09 m3/mol
x2 = 0.0786
  excess molar volume: 2.4e-08 ± 9e-09 m3/mol
x2 = 0.0991
  excess molar volume: 2.8e-08 ± 9e-09 m3/mol
x2 = 0.113
  excess molar volume: 3.2e-08 ± 9e-09 m3/mol
x2 = 0.1263
  excess molar volume: 3.6e-08 ± 9e-09 m3/mol
x2 = 0.142
  excess molar volume: 4e-08 ± 9e-09 m3/mol
x2 = 0.162
  excess molar volume: 4.4e-08 ± 1e-08 m3/mol
x2 = 0.1973
  excess molar volume: 4.7e-08 ± 1e-08 m3/mol
x2 = 0.2456
  excess molar volume: 5e-08 ± 1e-08 m3/mol
x2 = 0.2794
  excess molar volume: 5.2e-08 ± 1e-08 m3/mol
x2 = 0.3213
  excess molar volume: 5.3e-08 ± 1e-08 m3/mol
x2 = 0.3797
  excess molar volume: 5.2e-08 ± 1e-08 m3/mol
x2 = 0.4034
  excess molar volume: 5.1e-08 ± 1e-08 m3/mol
x2 = 0.4544
  excess molar volume: 5e-08 ± 1e-08 m3/mol
x2 = 0.4753
  excess molar volume: 4.9e-08 ± 1e-08 m3/mol
x2 = 0.5014
  excess molar volume: 4.7e-08 ± 1e-08 m3/mol
x2 = 0.5226
  excess molar volume: 4.4e-08 ± 1e-08 m3/mol
x2 = 0.5643
  excess molar volume: 4.1e-08 ± 1e-08 m3/mol
x2 = 0.5966
  excess molar volume: 3.8e-08 ± 9e-09 m3/mol
x2 = 0.6244
  excess molar volume: 3.6e-08 ± 9e-09 m3/mol
x2 = 0.6571
  excess molar volume: 3.3e-08 ± 9e-09 m3/mol
x2 = 0.688
  excess molar volume: 2.9e-08 ± 9e-09 m3/mol
x2 = 0.71
  excess molar volume: 2.6e-08 ± 9e-09 m3/mol
x2 = 0.7348
  excess molar volume: 2.4e-08 ± 9e-09 m3/mol
x2 = 0.7619
  excess molar volume: 2e-08 ± 9e-09 m3/mol
x2 = 0.7843
  excess molar volume: 1.7e-08 ± 9e-09 m3/mol
x2 = 0.8061
  excess molar volume: 1.4e-08 ± 9e-09 m3/mol
x2 = 0.8374
  excess molar volume: 1.2e-08 ± 9e-09 m3/mol
x2 = 0.8607
  excess molar volume: 1.1e-08 ± 9e-09 m3/mol
x2 = 0.8753
  excess molar volume: 1e-08 ± 9e-09 m3/mol
x2 = 0.8878
  excess molar volume: 9e-09 ± 9e-09 m3/mol
x2 = 0.9039
  excess molar volume: 8e-09 ± 9e-09 m3/mol
x2 = 0.924
  excess molar volume: 7e-09 ± 9e-09 m3/mol
x2 = 0.9469
  excess molar volume: 6e-09 ± 9e-09 m3/mol
x2 = 0.9599
  excess molar volume: 5e-09 ± 9e-09 m3/mol
x2 = 0.9885
  excess molar volume: 3e-09 ± 9e-09 m3/mol
x2 = 0.9955
  excess molar volume: 2e-09 ± 9e-09 m3/mol
